SMILES strings stand for the structures.

Data set [1] has as its system patients with pulmonary arterial hypertension. Kind of data set: Phase 4 open-label 16-week study: echocardiography parameters. The data set is classed as in vivo, human. As to conditions: transition visit; per-protocol population. An excerpt: (§1) Based on the 2015 ESC/ERS Guidelines, specific hemodynamic inclusion criteria included a mean pulmonary arterial pressure ≥25 mmHg, pulmonary artery wedge pressure or left ventricular end-diastolic pressure ≤15 mmHg, and pulmonary vascular resistance >3 Wood units, in the absence of unrepaired congenital heart disease. Other key inclusion criteria were World Health Organization functional class (FC) II or III, 6-minute walk distance (6MWD)≥250 m, and a REVEAL 2.0 risk score ≤9 (Benza et al. 2021, DOI: https://doi.org/10.1016/j.chest.2020.08.2069). Patients could be receiving up to two oral PAH background therapies if taken at a stable dose for ≥30 days prior to baseline. As this study focused on the addition of a new therapy rather than the replacement of one therapy by another therapy, participants were eligible regardless of the number of pulmonary arterial hypertension background therapies (0, 1, or 2) they were receiving at baseline. […] Baseline assessments were collected up to 14 days prior to initiation of parenteral treprostinil, and included hemodynamics via echocardiogram and RHC, FC, N-terminal-pro brain natriuretic peptide (NT-proBNP), 6MWD, and medication history. Of note, historical RHC data could be used for baseline assessments if performed up to 180 days prior to initiating parenteral treprostinil. Echocardiograms were uploaded and stored in a central repository and evaluated by an independent central reader in accordance with the American Society of Echocardiography Guidelines (Bossone et al., DOI: 10.1016/j.echo.2012.10.009).
(§2) Once patients reached at least 20 ng/kg/min and were deemed suitable for transition based on physician assessment, they were transitioned at Week 2,4, or 8 to oral treprostinil via cross-titration in an inpatient or outpatient setting over 1-21 days. All participants still receiving parenteral treprostinil at Week 8 began transitioning to oral treprostinil regardless of their parenteral treprostinil dose unless deemed unsuitable for transition by their clinician. Before transition, 6MWD, WHO FC, NT-proBNP, and echocardiography parameters were assessed.
The primary endpoint was the percentage of patients who achieved an oral treprostinil TDD of at least 12 mg (0.171 mg/kg for patients <70 kg) at Week 16. Secondary endpoints included change from baseline to Week 16 in risk strata and clinical parameters, where baseline values were collected within 14 days prior to parenteral treprostinil initiation. Changes in risk strata for FC, NT-proBNP, 6MWD, and right atrial (RA) area were assessed using the 2015 ESC/ERS Guidelines, which categorizes risk for each determinant as low, intermediate, and high (Galiè et al., 2016). Clinical parameters of interest included FC, NT-proBNP, 6MWD, echocardiography parameters, REVEAL Lite 2 score (Benza et al., 2021), and Borg Dyspnea Score (Borg, 1982, DOI: https://doi.org/10.1249/00005768-198205000-00012). The REVEAL Lite 2 score includes clinical parameters to determine the risk status (low, intermediate, and high) for pulmonary arterial hypertension. The Borg Dyspnea Score ranges from 0 to 10, where 0 indicates no dyspnea and 10 indicates very, very heavy (almost maximal) dyspnea. Patient-reported outcomes were assessed using the emPHasis-10 quality of life questionnaire (Yorke et al., 2014, DOI: 10.1183/09031936.00127113) and the Pulmonary Arterial Hypertension Symptom Scale (PAHSS) (Matura et al., 2015, DOI: https://doi.org/10.1016/j.apnr.2014.04.001). The Treatment Satisfaction Questionnaire for Medication (TSQM) (Atkinson et al., 2004, DOI: https://doi.org/10.1186/1477-7525-2-12) was used to measure patient satisfaction with their medication over the last two to three weeks; higher scores indicate greater satisfaction. EmPHasis-10 scores can range from 0 to 50, where lower scores indicate better quality of life. […]

Data set [2] has the same test system. The data set is described as follows: Phase 4 open-label 16-week study: clinical parameters, risk stratification, patient-reported outcomes. It is filed as in vivo, human. As to conditions: transition visit.
Text: The secondary endpoints of this study included measurements in: changes in prostanoid adverse events (AEs), echocardiograms, change in 6-minute walk distance (6MWD), change in Borg dyspnea score, change in World Health Organization (WHO) functional class (FC), change in serum N-terminal pro-brain natriuretic peptide (NT-proBNP) levels, impact of pulmonary hypertension on a person's life (health-related quality of life), and treatment satisfaction. Specifically, this study sought to measure the percentage of subjects that improved in each of the following individual four clinical parameters at Week 16 (6MWD, NT-proBNP, WHO FC, right atrial area) to a lower risk stratum, as defined by the 2015 ESC/ERS guidelines (Gailè et al., DOI: 10.1183/13993003.01032-2015), compared to baseline measurements. An additional endpoint was determining the percentage of subjects that meet each of the following four individual clinical parameters at Week 16 in the low risk category, as defined by 2015 ESC/ERS guidelines: 6MWD>440 meters, […].
as §1, §2
The primary endpoint was the percentage of patients who achieved an oral treprostinil TDD of at least 12 mg (0.171 mg/kg for patients <70 kg) at Week 16. Secondary endpoints included change from baseline to Week 16 in risk strata and clinical parameters, where baseline values were collected within 14 days prior to parenteral treprostinil initiation. Changes in risk strata for FC, NT-proBNP, 6MWD, and right atrial (RA) area were assessed using the 2015 ESC/ERS Guidelines, which categorizes risk for each determinant as low, intermediate, and high (Galiè et al., 2016). Clinical parameters of interest included FC, NT-proBNP, 6MWD, echocardiography parameters, REVEAL Lite 2 score (Benza et al., 2021), and Borg Dyspnea Score (Borg, 1982, DOI: https://doi.org/10.1249/00005768-198205000-00012). […]

Data set [3] has the same test system. Kind of data set: Phase 4 open-label 16-week study: safety and tolerability, prostanoid-related adverse events. It is filed as in vivo, human. As for the experimental part:
Safety and tolerability were assessed at each scheduled visit and in between visits as needed throughout the duration of the study. Tolerability measures of interest included incidence of all adverse events (AEs) and prostanoid-related AEs including headache, diarrhea, nausea, vomiting, flushing, jaw pain and extremity pain. […] Prostanoid-related events captured by the survey were only recorded if the event was unusual with respect to intensity, frequency, or duration compared to symptoms in the patient's medical history. Patient compliance with taking oral treprostinil was assessed by performing study drug accountability at each scheduled study visit. The primary endpoint and all efficacy endpoints were analyzed using the per-protocol population, which included all patients without major protocol deviations unless otherwise specified. The exact (Clopper-Pearson) 95% confidence interval was calculated for the primary endpoint. […] For continuous variables, descriptive statistics are reported as median (interquartile range, IQR or range) or mean (±standard deviation, SD). For categorical variables, descriptive statistics include frequency and percentage of patients in each category. Changes from baseline to Week 16 for continuous variables were analyzed using Wilcoxon signed rank test. The change in FC from baseline to Week 16 was analyzed using McNemar's test. The p-values from these tests were derived for descriptive purposes and not part of a formal hypothesis testing framework.

Data set [4] concerns Pulmonary arterial hypertension patients. The following applies: cited from earlier work.
[5] abbreviates: Parenteral Treprostinil Phase (Before Transition), n = 35.
Setting [6] is: per-protocol population (n=29), while on the labelled form.

Turning to `CCCCC[C@H](O)CC[C@@H]1[C@H]2Cc3cccc(OCC(=O)O)c3C[C@H]2C[C@H]1O` [parenteral treprostinil, treprostinil], in data set [1], the “TAPSE, median (IQR)” value is 18.1 (14.8, 20.9) mm and the “right atrial area, median (IQR)” value is on record as 19.3 (16.0, 26.7) cm2. Further, in data set [2] (29 patients), the “patients who improved WHO FC” value is given as 76%, the “patients who maintained WHO FC” value is given as 21% and the “patients who worsened WHO FC” value came to 3%. Besides, in data set [2] (per-protocol population), the “6MWD, median (IQR)” value is given as 377 (318, 453) m and the “NT-proBNP, median (IQR)” value was 186 (110, 724) ng/L. In data set [3] (setting [5]), the “Diarrhea, patients with AE” value is 18 (51) n (%); the “Extremity pain, patients with AE” value is given as 12 (34) n (%); the “Flushing, patients with AE” value is given as 10 (29) n (%); the “Headache, patients with AE” value is 28 (80) n (%). Further, in data set [3] (setting [5]), the “Jaw pain, patients with AE” value is recorded as 16 (46) n (%); the “Nausea, patients with AE” value is 24 (69) n (%); the “Vomiting, patients with AE” value was 13 (37) n (%). Moreover, the “most bothersome AE” value in data set [3] (during the phase of the labelled form) is “extremity pain, followed by jaw pain, headache, and diarrhea”. In addition, the “patients reporting at least one treatment-emergent AE” value in data set [3] (patients who initiated parenteral treprostinil) is given as “All patients”. Besides, in data set [3] (setting [6]), the “participants who received acetaminophen for prostacyclin-related headache” value worked out at 55%, the “participants who received loperamide for prostacyclin-related diarrhea” value came to 34% and the “participants who received ondansetron for prostacyclin-related nausea/vomiting” value stood at 69%.

For the molecule `O=C(O)COC[C@H]1CC[C@H](COC(=O)N(c2ccccc2)c2ccc(Cl)cc2)CC1` [ralinepag], the “outcomes, including pulmonary vascular resistance and 6-minute walk distances, versus placebo” value in data set [4] is “better outcomes”.

Consider `CCCCC[C@H](O)CC[C@@H]1[C@H]2Cc3cccc(OCC(=O)O)c3C[C@H]2C[C@H]1O` [treprostinil], for which, in data set [3] (Transition Phase, n = 33), the “Diarrhea, patients with AE” value was 17 (52) n (%); the “Extremity pain, patients with AE” value was 10 (30) n (%); the “Flushing, patients with AE” value is 10 (30) n (%); the “Headache, patients with AE” value is 19 (58) n (%). For the same molecule, in data set [3] (Transition Phase, n = 33), the “Jaw pain, patients with AE” value is listed as 15 (46) n (%); the “Nausea, patients with AE” value is 21 (64) n (%); the “Vomiting, patients with AE” value is listed as 5 (15) n (%).

The values are drawn from US20240139207A1, “METHODS FOR TREATING PULMONARY HYPERTENSION” (United Therapeutics Corporation, priority 2022, published 2024).
